{
  "source": "patent US20180325117A1",
  "about": "“PROBIOTIC COMPOSITIONS AND USES THEREOF” (priority 2015, published 2018)",
  "assay_type_in_all_cases": "in vivo",
  "key": {"hairy wart and foot rot": {"tested_on": "hairy wart and foot rot", "test": "Hoof spray of lactating cows: lameness, hairy wart and foot rot"}, "turkeys [1]": {"tested_on": "turkeys", "test": "Turkey mortality with water additive, flocks of 50,000 turkeys", "design": "mortality cumulative total per group: concentration or dose not given beside the values", "source_text": "The mortality of the flock of 50,000 turkeys that consumed water with chlorine dioxide was 6.5% as compared to 3% for a flock of 50,000 turkeys consuming water with W+. The y-axis of FIG. 13 represents the cumulative total mortality (%), and the x-axis represents a 19-week period during which the turkeys were observed. The top dotted line represents a flock (of 50,000 turkeys) with chlorine dioxide added to their water. The middle dotted line represents a flock (of 50,000 turkeys) that for four weeks consumed water treated with chlorine dioxide (5 ppm). After four weeks, the water additive was changed to W+ diluted 1:10,000 (note the reduced slope of the mortality curve at week 5). The bottom solid line represents a flock (of 50,000 turkeys) that was fed water with W+."}, "turkeys [2]": {"tested_on": "turkeys", "test": "Turkey weight versus barn standard and mortality, six barns", "source_text": "A common practice among commercial turkey growing facilities is to compare the weight gain of their flocks against a standard that is based on the performance of the grower's previous flocks. The grower has a standard for each barn, or group of barns, based on their recorded history. […] The flocks in the barns being fed W+ in their water (Barns-055, Barn-043, and Barn-025) exceeded standard weights by 11.7%, while the barns where the turkeys were fed water with chlorine dioxide (Barns-041, Barn-047, and Barn-045) were −7.6% compared to standard weights. The y-axis represents % deviation from a standard (Std)(average for each barn), and the x-axis represents data obtained from turkeys in six different barns (approximately 17,000 turkeys per barn)."}, "Clostridial scours": {"tested_on": "Clostridial scours", "test": "Swine gut health: scours on test farm", "details": "total population of 3,850 swine; chlorine dioxide standard water protocol, then W+ 1:6,000 in water lines", "experimental": "Scours (dysentery) is a common ailment in swine and is symptomatic of poor gut health (gastrointestinal tract health). […] Column (B) is the number of swine (397) that were infected with scours while on a standard water protocol of chlorine dioxide to prevent biofilm in the water lines. The addition of chlorine dioxide was stopped and W+ (at a dilution of 1:6,000) was added to the water lines, the number of swine with scours was reduced to 23 (Column (C)), a 94% reduction in the number of swine with Clostridial scours."}, "Mastitis": {"tested_on": "Mastitis", "test": "Teat spray of lactating dairy cows: somatic cell count and Mastitis", "details": "210 lactating cows", "source_text": "The efficacy of iodine versus D+t128 in reducing the presence of Mastitis was studied. […] 210 lactating dairy cows were milked twice a day for four weeks. The somatic cell count (SCC) of the herd at the beginning of the test period was 263,000/ml, as shown in the two right-hand columns of the top panel of FIG. 21. The standard protocol using iodine was as follows: prior to each milking, the teats of the dairy cows were sprayed with 0.5% iodine. After each milking, the teats of the dairy cows were sprayed with 1.0% iodine. Mastitis was evident on 27 of the cows (see bottom panel of FIG. 21). Treatment with iodine was then stopped, and D+t128 was used to treat the teats of the cows. Prior to each milking, the teats of the dairy cows were sprayed with 1.25 ounces of D+t128 at a dilution of 1:128. After each milking, the teats of the dairy cows were sprayed with 1.25 ounces of D+t128 at a dilution of 1:128. At the end of the test period, the SSC had decreased from 263,000/ml to 120,000/ml in the herd treated with D+t128 (see two right-hand columns of the top panel of FIG. 21). The lower the SSC, the healthier the cow; the lower SSC reading correlates with the reduced number of cows with Mastitis. The number of cows with Mastitis had decreased from 27 to 12 (see two right-hand columns of bottom panel of FIG. 21). The SSC values are an average of all milk obtained from the 210 lactating cows. […]"}},
  "data": [
    {"smiles": "O=S(=O)([O-])[O-].[Cu+2]", "note": "[Copper-Sulphate]", "values": [
      {"measurement": "percentage of lame cows", "setting": "hairy wart and foot rot; herd of 500 lactating cows, Copper-Sulphate spray = T0 start, D+h100 1:100 spray = day 35", "result": "over 35%"},
      {"measurement": "cows with swelling indicating new hairy wart formation", "setting": "hairy wart and foot rot; start of test period, prior Copper-Sulphate spray, data not shown", "result": 60, "unit": "%"}
    ]},
    {"smiles": "[O][Cl+][O-]", "note": "[chlorine dioxide]", "values": [
      {"measurement": "mortality cumulative total per group", "setting": "turkeys [1]; Week 1", "result": 0.74, "unit": "%"},
      {"measurement": "mortality cumulative total per group", "setting": "turkeys [1]; Week 2", "result": 1.45, "unit": "%"},
      {"measurement": "mortality cumulative total per group", "setting": "turkeys [1]; Week 3", "result": 1.84, "unit": "%"},
      {"measurement": "mortality cumulative total per group", "setting": "turkeys [1]; Week 4", "result": 2.15, "unit": "%"},
      {"measurement": "mortality cumulative total per group", "setting": "turkeys [1]; Week 5", "result": 3.52, "unit": "%"},
      {"measurement": "mortality cumulative total per group", "setting": "turkeys [1]; Week 6", "result": 3.97, "unit": "%"},
      {"measurement": "mortality cumulative total per group", "setting": "turkeys [1]; Week 7", "result": 4.22, "unit": "%"},
      {"measurement": "mortality cumulative total per group", "setting": "turkeys [1]; Week 8", "result": 4.46, "unit": "%"},
      {"measurement": "mortality cumulative total per group", "setting": "turkeys [1]; Week 9", "result": 4.62, "unit": "%"},
      {"measurement": "mortality cumulative total per group", "setting": "turkeys [1]; Week 10", "result": 4.79, "unit": "%"},
      {"measurement": "mortality cumulative total per group", "setting": "turkeys [1]; Week 11", "result": 5.01, "unit": "%"},
      {"measurement": "mortality cumulative total per group", "setting": "turkeys [1]; Week 12", "result": 5.14, "unit": "%"},
      {"measurement": "mortality cumulative total per group", "setting": "turkeys [1]; Week 13", "result": 5.29, "unit": "%"},
      {"measurement": "mortality cumulative total per group", "setting": "turkeys [1]; Week 14", "result": 5.46, "unit": "%"},
      {"measurement": "mortality cumulative total per group", "setting": "turkeys [1]; Week 15", "result": 5.63, "unit": "%"},
      {"measurement": "mortality cumulative total per group", "setting": "turkeys [1]; Week 16", "result": 5.82, "unit": "%"},
      {"measurement": "mortality cumulative total per group", "setting": "turkeys [1]; Week 17", "result": 6.05, "unit": "%"},
      {"measurement": "mortality cumulative total per group", "setting": "turkeys [1]; Week 18", "result": 6.29, "unit": "%"},
      {"measurement": "mortality cumulative total per group", "setting": "turkeys [1]; Week 19", "result": 6.54, "unit": "%"},
      {"measurement": "mortality cumulative total per group", "setting": "turkeys [1]; Week 20", "result": 6.84, "unit": "%"},
      {"measurement": "mortality cumulative total per group", "setting": "turkeys [1]; Week 21", "result": 6.74, "unit": "%"},
      {"measurement": "mortality of the flock (cumulative total)", "setting": "turkeys [1]; flock of 50,000 turkeys, FIG. 13, 19-week period, W+ 1:10,000, chlorine dioxide 5 ppm in water", "result": 6.5, "unit": "%"},
      {"measurement": "mortality rate (average)", "setting": "turkeys [2]; FIG. 23, turkeys fed water with additive", "result": 12.3, "unit": "%"},
      {"measurement": "deviation from standard weights", "setting": "turkeys [2]; three barns per water additive, approximately 17,000 turkeys per barn, FIG. 14", "result": "−7.6", "unit": "%"},
      {"measurement": "number of swine infected with scours", "setting": "Clostridial scours", "result": 397}
    ]},
    {"smiles": "II", "note": "[iodine]", "values": [
      {"measurement": "somatic cell count (SCC) of the herd", "setting": "Mastitis; iodine protocol = beginning of test period, D+t128 1:128 teat spray before and after each milking = end of 28-day test period", "result": "263,000 /ml"},
      {"measurement": "number of cows with Mastitis", "setting": "Mastitis; iodine protocol = start, D+t128 1:128 = finish of 28-day test period", "result": 27}
    ]}
  ]
}
